Assay type in all cases: functional
For one experiment, the system named is Staphylococcus aureus. The experiment in a line: Antimicrobial activity against Staphylococcus aureus measured per disk.
In the next experiment the test system is Escherichia coli. The experiment in a line: Antimicrobial activity against Escherichia coli measured per disk.
The test system of the next experiment is Chlorophyta. The experiment in a line: Inhibition of photosynthesis in green alga at 100 ug/mL.

Molecules are shown by their SMILES.

As to `CCCC1CCCCCCCCCCCC#Cc2cc(O)c1c(O)c2` (stereo not drawn) [NOSTOCYCLYNE A], the MIC in the experiment on Staphylococcus aureus is 12.5 µg; in the experiment with Escherichia coli, 10 µg. In the experiment with Chlorophyta, this compound came in with an inhibition at 100 µg/mL of 5%.

The values are drawn from ChEMBL document CHEMBL1155625, “Nostocyclyne A, a novel antimicrobial cyclophane from the cyanobacterium Nostoc sp” (2000).
